Test system: HEPG2 cells
Assay: MTT cell viability / mammalian cytotoxicity
Type: cell-based, human
Settings: 100 μM; HEPG2 approx. 2.5 × 10^5 cells/mL; Ex. 3 series
Protocol: Eukaryotic Toxicity Testing. Two rounds of eukaryotic toxicity testing were performed. Initially hits of interest were evaluated for antifungal activity in high throughput manner. To do so, 10^5 CFU of Saccharomyces cerevisiae YSB1001 cells (10 μL) were inoculated into individual wells of a microtiter plate containing yeast peptone dextrose media (88 μL) and 50 μM of each hit (2 μL). […] More extensive mammalian cytotoxicity testing was performed on the indicated highest priority hits of interest following International Organization for Standardization guidelines. Briefly, human liver epithelial cells (HEPG2) were cultured in Dulbecco's modified Eagle medium (DMEM; Fisher Scientific®) supplemented with 10% heat inactivated fetal bovine serum (FBS; Corning Life Sciences, Corning, NY) and 1% penicillin and streptomycin. Cells were incubated at 37° C. with 5% CO2 in Nunc™ tissue culture flasks (Roskilde, Denmark) until reaching 70% confluency. Cells were removed with 0.25% trypsin (Fisher Scientific®), resuspended in fresh medium, and used to seed approximately 2.5×10^5 mL^−1 cells into individual wells of a 96 well tissue culture microplate (Nunc™) containing 200 μL of fresh medium, and incubated for 24 hours. […] Mixtures were incubated for 20-24 h at 37° C. with 5% CO2, the media was removed and replaced with 100 μL fresh media and 10 μL of 12 mM (3-(4,5-dimethylthiazol-2-yl)-2,5-diphenyltetrazolium bromide (MTT) reagent (Cyquant™ Cell Viability kit; Invitrogen™, Carlsbad, CA) was added to each well. Cells were incubated at 37° C. with 5% CO2 for 2-4 hour, 85 μL of media was removed and the remainder was mixed with 50 μL DMSO and incubated for an additional 10 minutes at 37° C. in the dark. Using a SpectraMax® M5 microplate reader, cell viability was recorded as absorbance at OD540 nm. All compounds were tested in triplicate and cell viability was expressed as a percent viability of treated cells in comparison to mock treated cells. […]

O=C(Nc1ccc2[nH]c(-c3cccs3)nc2c1)c1ccco1 [Compound 1 (7729837)]
Toxicity with HEPG2 Cells (cell viability): 95±16.8%

— patent US20260124213A1, “STAPHYLOCOCCUS AUREUS PBP4 INHIBITORS AND METHOD OF USE” (UNIVERSITY OF ROCHESTER, priority 2022, published 2026)
